How the values were obtained:
ABL1 = ABL1 (Homo sapiens, UniProt P00519); assay: Kinobeads two-dose competition binding: ABL1; details: sheet CATDS matrix 2; Gene Name ABL1
ACAD11 = molecular target: T1, ACAD11 (Homo sapiens, UniProt Q709F0); assay: Kinobeads two-dose competition binding: ACAD11; details: sheet CATDS matrix 2; Gene Name ACAD11
T1 construct: endogenous in cells
T1 sequence (Q709F0 1-780): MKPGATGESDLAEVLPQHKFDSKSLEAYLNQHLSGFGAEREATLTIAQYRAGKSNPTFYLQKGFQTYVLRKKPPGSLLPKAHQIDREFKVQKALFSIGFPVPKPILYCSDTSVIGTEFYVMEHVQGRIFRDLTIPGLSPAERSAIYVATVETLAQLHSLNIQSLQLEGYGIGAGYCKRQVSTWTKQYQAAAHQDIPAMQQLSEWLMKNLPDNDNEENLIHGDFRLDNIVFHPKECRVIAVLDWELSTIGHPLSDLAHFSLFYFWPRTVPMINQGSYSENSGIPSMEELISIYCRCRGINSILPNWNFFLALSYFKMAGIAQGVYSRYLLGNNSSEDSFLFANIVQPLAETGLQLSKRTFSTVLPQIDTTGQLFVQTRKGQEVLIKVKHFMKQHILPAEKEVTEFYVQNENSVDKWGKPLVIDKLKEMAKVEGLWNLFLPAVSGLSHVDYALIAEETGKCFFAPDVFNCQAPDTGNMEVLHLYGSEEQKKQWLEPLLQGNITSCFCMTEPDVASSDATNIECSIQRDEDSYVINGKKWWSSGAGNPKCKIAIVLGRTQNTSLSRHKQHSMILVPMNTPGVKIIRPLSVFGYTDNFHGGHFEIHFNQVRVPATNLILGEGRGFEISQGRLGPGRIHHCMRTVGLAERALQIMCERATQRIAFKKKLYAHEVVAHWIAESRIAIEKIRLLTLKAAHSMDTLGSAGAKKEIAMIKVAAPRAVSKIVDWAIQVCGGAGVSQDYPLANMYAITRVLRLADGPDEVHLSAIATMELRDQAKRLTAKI

ACOX1 = molecular target: T2, ACOX1 (Homo sapiens, UniProt Q15067); assay: Kinobeads two-dose competition binding: ACOX1; details: sheet CATDS matrix 2; Gene Name ACOX1;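 further: competition of compounds with immobilized broad-spectrum kinase inhibitor beads in cell lysate at 100 and 1,000 nM, 45 min at 4 °C, bead-bound protein quantified by label-free MS versus DMSO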
T2 construct: endogenous in cells
T2 sequence (Q15067 1-660): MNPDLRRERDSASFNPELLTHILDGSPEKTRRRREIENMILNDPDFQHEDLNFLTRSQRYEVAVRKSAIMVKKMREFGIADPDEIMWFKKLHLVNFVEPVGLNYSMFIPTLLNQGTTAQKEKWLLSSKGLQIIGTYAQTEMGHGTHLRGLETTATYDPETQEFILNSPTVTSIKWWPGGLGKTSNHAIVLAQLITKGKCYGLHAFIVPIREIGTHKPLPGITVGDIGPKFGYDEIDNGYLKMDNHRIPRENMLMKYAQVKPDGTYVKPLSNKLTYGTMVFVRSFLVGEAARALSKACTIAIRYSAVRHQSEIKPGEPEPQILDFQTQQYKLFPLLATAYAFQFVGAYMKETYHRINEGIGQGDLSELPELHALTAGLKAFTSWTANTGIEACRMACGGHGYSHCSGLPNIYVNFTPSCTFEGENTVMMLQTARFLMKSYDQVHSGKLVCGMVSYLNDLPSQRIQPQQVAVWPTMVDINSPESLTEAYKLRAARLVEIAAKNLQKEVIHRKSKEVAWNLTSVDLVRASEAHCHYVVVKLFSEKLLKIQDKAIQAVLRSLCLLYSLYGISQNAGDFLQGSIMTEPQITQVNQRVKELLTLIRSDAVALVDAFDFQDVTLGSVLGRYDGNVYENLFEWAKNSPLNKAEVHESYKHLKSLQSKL

AAK1 = molecular target: T3, AAK1 (Homo sapiens, UniProt Q2M2I8); assay: Kinobeads two-dose competition binding: AAK1; details: for CATDS: sheet CATDS matrix 2, Gene Name AAK1; for potency estimated from few doses: sheet "Kinobeads Drugmatrix - all", unit inferred, same values below 1000 recur in sheet "nanomolar", read-out: Kinobeads Drugmatrix - all: apparent Kd, AAK1;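 on all read-outs here: kinobeads competition pulldown from cell lysate, compound preincubated 45 min at 4 °C, bead-bound protein measured by label-free mass spectrometry against DMSO vehicle control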
T3 construct: to maximize the representation of endogenous proteins; endogenous in cells
T3 sequence (Q2M2I8 whole entry): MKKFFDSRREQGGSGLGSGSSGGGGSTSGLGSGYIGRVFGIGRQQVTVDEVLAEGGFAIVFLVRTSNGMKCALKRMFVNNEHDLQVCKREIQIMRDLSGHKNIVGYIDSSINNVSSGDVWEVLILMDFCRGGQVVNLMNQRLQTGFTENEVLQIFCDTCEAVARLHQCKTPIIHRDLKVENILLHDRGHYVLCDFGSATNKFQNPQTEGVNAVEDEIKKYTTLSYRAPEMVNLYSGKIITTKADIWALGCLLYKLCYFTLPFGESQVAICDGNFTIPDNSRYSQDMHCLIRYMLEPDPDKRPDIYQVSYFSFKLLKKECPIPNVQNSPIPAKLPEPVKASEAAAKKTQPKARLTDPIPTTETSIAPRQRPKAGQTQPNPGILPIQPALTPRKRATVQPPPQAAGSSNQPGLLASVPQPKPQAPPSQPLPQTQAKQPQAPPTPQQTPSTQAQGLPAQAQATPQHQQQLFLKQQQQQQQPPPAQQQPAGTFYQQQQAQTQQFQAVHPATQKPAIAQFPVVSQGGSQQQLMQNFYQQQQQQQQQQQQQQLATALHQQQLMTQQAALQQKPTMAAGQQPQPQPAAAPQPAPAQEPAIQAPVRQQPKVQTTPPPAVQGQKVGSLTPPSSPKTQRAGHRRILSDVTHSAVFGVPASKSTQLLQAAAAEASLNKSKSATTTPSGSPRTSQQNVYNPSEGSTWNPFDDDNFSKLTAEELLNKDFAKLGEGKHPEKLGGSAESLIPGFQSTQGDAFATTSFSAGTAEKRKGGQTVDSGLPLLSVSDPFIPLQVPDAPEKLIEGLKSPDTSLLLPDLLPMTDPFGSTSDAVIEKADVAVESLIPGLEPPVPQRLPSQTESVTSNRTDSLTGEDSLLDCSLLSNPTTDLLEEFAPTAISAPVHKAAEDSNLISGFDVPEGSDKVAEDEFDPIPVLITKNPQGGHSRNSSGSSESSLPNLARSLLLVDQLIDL

ABL2 = molecular target: T4, ABL2 (Homo sapiens, UniProt P42684); assay: Kinobeads two-dose competition binding: ABL2; details: sheet CATDS matrix 2; Gene Name ABL2
T4 construct: endogenous in cells
T4 sequence (P42684 whole entry): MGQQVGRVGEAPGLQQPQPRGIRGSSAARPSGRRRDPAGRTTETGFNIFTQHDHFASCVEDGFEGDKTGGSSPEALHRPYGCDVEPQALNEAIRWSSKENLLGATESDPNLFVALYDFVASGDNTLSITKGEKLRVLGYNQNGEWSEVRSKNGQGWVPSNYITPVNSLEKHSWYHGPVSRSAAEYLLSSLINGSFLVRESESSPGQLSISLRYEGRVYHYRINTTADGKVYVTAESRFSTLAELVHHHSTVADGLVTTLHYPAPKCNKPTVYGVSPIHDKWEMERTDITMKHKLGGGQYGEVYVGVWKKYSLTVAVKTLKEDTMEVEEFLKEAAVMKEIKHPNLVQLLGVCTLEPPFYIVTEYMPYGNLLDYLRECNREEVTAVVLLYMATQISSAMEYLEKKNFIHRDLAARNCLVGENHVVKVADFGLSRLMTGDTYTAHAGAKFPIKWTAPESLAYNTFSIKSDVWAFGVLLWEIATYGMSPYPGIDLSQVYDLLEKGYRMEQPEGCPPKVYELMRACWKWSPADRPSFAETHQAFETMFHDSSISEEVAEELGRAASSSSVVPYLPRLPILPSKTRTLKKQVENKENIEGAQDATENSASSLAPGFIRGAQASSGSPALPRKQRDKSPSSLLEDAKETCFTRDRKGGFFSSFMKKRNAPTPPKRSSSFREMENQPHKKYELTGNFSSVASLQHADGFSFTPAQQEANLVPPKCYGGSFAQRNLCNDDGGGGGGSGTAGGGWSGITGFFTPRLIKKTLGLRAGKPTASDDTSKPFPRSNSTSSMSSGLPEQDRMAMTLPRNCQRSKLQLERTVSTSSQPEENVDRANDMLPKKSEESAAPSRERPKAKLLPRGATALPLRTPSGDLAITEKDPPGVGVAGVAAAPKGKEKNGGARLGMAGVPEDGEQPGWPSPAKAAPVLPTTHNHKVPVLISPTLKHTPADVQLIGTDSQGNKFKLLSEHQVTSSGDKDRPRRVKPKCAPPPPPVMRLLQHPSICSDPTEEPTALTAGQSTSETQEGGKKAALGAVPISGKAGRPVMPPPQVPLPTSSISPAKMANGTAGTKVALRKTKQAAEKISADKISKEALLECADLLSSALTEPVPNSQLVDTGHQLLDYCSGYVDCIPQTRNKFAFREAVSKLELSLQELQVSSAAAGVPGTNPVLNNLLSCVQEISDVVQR

Sequence of ABL1 (P00519 28-1130 limits assumed): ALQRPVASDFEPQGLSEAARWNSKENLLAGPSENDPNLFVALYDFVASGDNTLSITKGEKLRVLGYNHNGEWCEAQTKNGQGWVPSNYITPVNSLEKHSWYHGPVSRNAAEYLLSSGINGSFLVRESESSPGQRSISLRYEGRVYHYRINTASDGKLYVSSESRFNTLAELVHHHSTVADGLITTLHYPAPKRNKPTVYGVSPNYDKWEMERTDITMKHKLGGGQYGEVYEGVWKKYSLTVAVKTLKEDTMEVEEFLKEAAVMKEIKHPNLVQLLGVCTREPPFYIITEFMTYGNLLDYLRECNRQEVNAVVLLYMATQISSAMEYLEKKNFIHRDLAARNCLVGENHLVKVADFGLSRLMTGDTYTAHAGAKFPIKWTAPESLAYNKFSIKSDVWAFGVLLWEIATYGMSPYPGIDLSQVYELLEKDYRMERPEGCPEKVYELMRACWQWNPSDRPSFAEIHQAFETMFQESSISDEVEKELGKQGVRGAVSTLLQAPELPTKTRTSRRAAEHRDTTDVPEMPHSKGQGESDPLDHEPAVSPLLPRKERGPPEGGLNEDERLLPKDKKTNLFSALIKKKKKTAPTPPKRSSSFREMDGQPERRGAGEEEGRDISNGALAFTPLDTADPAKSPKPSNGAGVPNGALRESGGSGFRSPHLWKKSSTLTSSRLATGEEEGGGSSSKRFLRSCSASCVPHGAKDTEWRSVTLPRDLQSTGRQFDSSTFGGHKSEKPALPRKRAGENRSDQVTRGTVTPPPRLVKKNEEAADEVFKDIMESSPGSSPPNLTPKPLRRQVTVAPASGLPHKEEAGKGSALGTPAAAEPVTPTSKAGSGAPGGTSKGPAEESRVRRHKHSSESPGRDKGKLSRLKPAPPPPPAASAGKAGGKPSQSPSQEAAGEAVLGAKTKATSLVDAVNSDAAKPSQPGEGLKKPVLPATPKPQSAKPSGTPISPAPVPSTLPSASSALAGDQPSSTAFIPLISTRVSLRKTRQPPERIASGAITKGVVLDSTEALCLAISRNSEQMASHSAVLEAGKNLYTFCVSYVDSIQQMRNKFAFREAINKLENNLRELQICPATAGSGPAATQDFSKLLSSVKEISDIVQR

CATDS (ABL1) | CATDS (ACAD11) | CATDS (ACOX1) | CATDS (AAK1) | CATDS (ABL2) | potency estimated from few doses (AAK1) [nM] | Compound
0 | 0 | 0 | 0 | 0 |  | CCC(NN(C)C)=C1C(=O)Nc2ccc(C(C)=O)cc21 [BI00036838]
0 | 0 | 0 | 0 | 0 |  | NC(=O)c1sc(-n2cnc3ccccc32)cc1OCc1ccccc1Br [GSK1023156A]
0 | 0 | 0 | 0 | 0 |  | COc1cc2c(cc1OC)C(=C(Nc1ccccc1)c1cccc(CN)c1)C(=O)N2 [BIBF0846CL]
0 | 0 | 0 | 0 | 0 |  | COc1cc2c(cc1Nc1nc(Nc3ccsc3C(N)=O)c3cc[nH]c3n1)N(C(=O)CN(C)C)CCC2(C)C [GSK2163632A]
0 | 0 | 0 | 0.3935 | 0 |  | CC(C)c1cc(-c2ccc3c(N)n[nH]c3c2)nc(N)n1 [GSK2250882A]
0 | 0 | 0 | 0 | 0 |  | COc1cc(Nc2ccnc3ccc(Br)cc23)cc(OC)c1OC [CA93.0]
0 | 0 | 0 | 0 | 0 |  | CCCNC(=O)c1ccc(Nc2ncc(C(F)(F)F)c(Nc3ccccc3C(C)=O)n2)c(Br)c1 [BI00801818]
0 | 0 | 0 | 0 | 0 |  | NCC(NC(=O)c1cc(-c2cccnc2)c(-c2ccnc3[nH]ccc23)s1)c1ccccc1 (stereo not shown) [GSK1323434A]
0 | 0 | 0 | 0 | 0 |  | CCCS(=O)(=O)Nc1ccc(F)c(-n2cc(-c3cncc(OC)c3)nn2)c1F [BI00865461]
0 | 0 | 0 | 0 | 0 |  | COc1cc(Nc2ncc(F)c(Nc3ccc4c(n3)N(COP(=O)(O)O)C(=O)C(C)(C)O4)n2)cc(OC)c1OC [Fostamatinib, reference compound]
0 | 0 | 0 | 0 | 0 |  | COc1cc2c(cc1Nc1nc(N3CCc4ccccc43)c3cc[nH]c3n1)N(C(=O)CN(C)C)CC2 [GSK2186269A]
0 | 0 | 0 | 0 | 0 |  | CCNC(=O)O[C@H]1CN[C@H](C#Cc2cc3ncnc(Nc4ccc(OCc5cccc(F)c5)c(Cl)c4)c3s2)C1 [GSK192082A]
0 | 0 | 0 | 0 | 0 | > 1000 | NC(CNC(=O)c1cc(Br)c(-c2ccnc3[nH]ccc23)s1)c1ccccc1 (stereo not shown) [GSK1322949A]
0 | 0 | 0 | 0 | 0 |  | COc1cc(N2CCN(C(C)C)CC2)ccc1Nc1nc(Nc2cccc3ncccc23)c2cc[nH]c2n1 [GSK1511931A]
0 | 0 | 0 | 0 | 0 | > 1000 | COc1ccc(Nc2nccc(-c3ccc(NC(=O)c4cc5cc(F)ccc5[nH]4)cc3)n2)cc1 [GSK1229496A]
0 | 0 | 0 | 0 | 0 |  | COc1ncc(-c2cc(-c3ncc(CN4C[C@@H](C)O[C@@H](C)C4)o3)c3cn[nH]c3c2)cc1NS(C)(=O)=O [GSK2292767]
0 | 0 | 0 | 0 | 0 |  | CC(C)N1CCN(Cc2cnc(-c3cc(-c4cccc5[nH]ccc45)cc4[nH]ncc34)o2)CC1 [GSK2269557]
0 | 0 | 0 | 0 | 0 |  | c1ccc(Cc2nc3ccc(Nc4ncnc5ccccc45)cc3[nH]2)cc1 [GR269666A_KCGS]
0 | 0 | 0 | 0 | 0 |  | COc1ccc(C[C@@H](CN)NC(=O)c2cc(Br)c(-c3ccnc4[nH]ccc34)s2)cc1 [GSK1389063A]
0 | 0 | 0 | 0 | 0 |  | COc1cc2ncnc(Nc3cccc(Cl)c3F)c2cc1O[C@H]1CC[C@@]2(CC1)NCCNC2=O [BI00113608]
0 | 0 | 0 | 0.01731 | 0 |  | COc1cc(N2CCC(N3CCN(C)CC3)CC2)ccc1Nc1ncc(Cl)c(Nc2ccccc2P(C)(C)=O)n1 [Brigatinib, reference compound]
0 | 0 | 0 | 0 | 0 |  | O=C(Nc1ccccc1F)NC1CCN(c2ccnc(Nc3ccc(F)cc3)n2)C1 (stereo not shown) [GSK1379722A]
0 | 0 | 0 | 0 | 0 |  | CSc1nn2c(=O)cc(N3CCOCC3)nc2n1Cc1cccc(Cl)c1Cl [GSK2347225A]
0 | 0 | 0 | 0 | 0 |  | CCCN1CCCC(c2ccc(Nc3nc(Nc4cc(F)ccc4C(N)=O)c4cc[nH]c4n3)c(OC)c2)C1 (stereo not shown) [GSK1173862A]
0 | 0 | 0 | 0 | 0 |  | O=c1cc(N2CCOCC2)nc2n(Cc3cccc(Cl)c3Cl)c(C3CC3)nn12 [GSK2358994A]
0 | 0 | 0 | 0 | 0 |  | COc1cc(Nc2nccc(N3CCC(NS(=O)(=O)c4ccc(NC(C)=O)cc4)CC3)n2)cc(OC)c1OC [GSK1379825A]
0 | 0 | 0 | 0.1267 | 0 |  | CCS(=O)(=O)N1CC(CC#N)(n2cc(-c3ncnc4[nH]ccc34)cn2)C1 [Baricitinib, reference compound]
0 | 0 | 0 | 0 | 0 | > 1000 | COc1cc(Nc2nccc(N3CCC(NC(=O)C4COc5ccccc5O4)C3)n2)cc(OC)c1OC (stereo not shown) [GSK1379761A]
0 | 0 | 0 | 0.08249 | 0 | 194 | Nc1nccc(-c2ccc3c(N)n[nH]c3c2)n1 [GSK1034945A]

Compound | CATDS (ABL1) | CATDS (ACAD11) | CATDS (ACOX1) | CATDS (AAK1) | CATDS (ABL2) | potency estimated from few doses (AAK1) [nM]
Cc1cccc(Nc2nc(NCCN)ncc2C(N)=O)c1 [GSK1292139B] | 0 | 0 | 0 | 0.21 | 0 | 164
N#Cc1ccc(CCNc2nccc(-c3cccc(CN4CCNCC4)c3)n2)cc1 [GSK2137462A] | 0 | 0 | 0 | 0 | 0 | 

Source: article PMC11062922 (Nature Chemical Biology, 2023)
